Measurements: patent US20050118202A1, “Solid compositions containing compounds unstable to oxygen and method for stabilization thereof” (priority 2001, published 2005)

Key:
Assay type in all cases: physicochemical
[1] = Experimental Example 3: stability of tablets with/without sodium ascorbate, 40° C. 1 month, HPLC
Protocol: (§1) Measurement of the contents of the compound A and the related substances was carried out by a HPLC method under the following conditions: • solvent: water/acetonitrile mixed solution (4:6), • measurement wavelength: 287 nm, • column: XTerra MS C18 3.5 μm 4.6 mm×150 mm (manufactured by Waters Co., Ltd.), • mobile phase: a gradient of 10 mM ammonium acetate solution/acetonitrile mixed solution (4:3) and acetonitril/10 mM ammonium acetate solution mixed solution (9:1), and • oven temperature: around 40° C.
The equilibrium moisture content (ERH) of each tablet was measured by the following method. The results were 3.0% and 3.4%, respectively.
These tablets were put in a capped glass bottle and sealed. After storage at 40° C. for 1 month, the contents of the compound A and the related substances were measured. The content of the compound A was measured in the same manner as the measurement method in Experimental Example 2, except that a water/acetonitrile mixed solution (4:6) was used as a solvent. The measurement of the related substances was carried out in the same manner as […].

[2] = Experimental Example 2: stability of tablet vs bulk powder, 60° C. 2 weeks, HPLC
Protocol: The tablet obtained in Example 1 was put in a capped glass bottle and sealed. After storage at 60° C. for 2 weeks, the contents of the compound A and the related substances in the tablet were measured. Similarly, the bulk powder used for production of the tablet in Example 1 was stored under the same conditions and then the contents of the compound A and the related substances were measured. A comparison of stabilities between the formulated tablet and the bulk powder was made.
as §1

[3] = Experimental Example 1: residual ratio of bulk powders after storage; conditions: bulk powder left at 40° C. and 75% RH in atmospheric air for 1 month
Protocol: After the bulk powder of the compound A and sodium ascorbate were left at 40° C. and 75% RH in atmospheric air for 1 month, their residual ratios were measured. As a result, the residual ratio of the compound A was 89.7% (W/W) and the residual ratio of sodium ascorbate was 99.0% (W/W).
The quantitative determination of the compound A was carried out by a HPLC method under the following conditions: • solvent: acetonitrile, • measurement wavelength: 287 nm, • column: CHIRALCEL OJ-R 4.6×150 mm (manufactured by Daicel Chemical Industries, Ltd. CPI Co.), • mobile phase: a mixed (16:9) solution of acetonitrile/10 mM ammonium acetate aqueous solution, • oven temperature: around 25° C.
The quantitative determination of sodium ascorbate was carried out by iodine titration method (solvent: metaphosphoric acid solution (1→50), indicator: starch reagent solution).

[4] = content in the bulk used for Examples 5 and 7
[5] = initial: immediately after production
[6] = sealed capped glass bottle, after 2-week storage at 60° C.

Row | SMILES | Related substance C [1, 4] | Related substance D [1, 4] | Related substance E [1, 4] | related substance A [1, 4] | related substance B [1, 4] | related substance A ([1]; content in the bulk used, last item of the list A to F (second mention of A)) | Related substance C [2, 5] | Related substance D [2, 5] | Related substance E [2, 5] | Related substance F [2, 5] | related substance A [2, 5] | residual ratio [2, 5] | Related substance C [2, 6] | Related substance D [2, 6] | Related substance E [2, 6] | Related substance F [2, 6] | related substance A [2, 6] | related substance B [2, 6] | residual ratio [2, 6] | residual ratio [3]
1 | COc1cc2c(cc1OC)CN(c1c(C)c(C)c3c(c1C)[C@@H](c1ccc(C)cc1)C(C)(C)O3)C2 [compound A, (R)-(+)-5,6-dimethoxy-2-[2,2,4,6,7-pentamethyl-3-(4-methylphenyl)-2,3-dihydro-1-benzofuran-5-yl]isoindoline] | 0.40% | 0.43% | 0.08% | 0.31% | 0.08% | 2.69% | 0.24% | 0.32% | 0.13% | 3.01% | 0.46% | 100.0% | 1.13% | 2.12% | 0.78% | 10.41% | 1.74% | 0.59% | 87.9% | 89.7 % (W/W)
2 | O=C1O[C@H]([C@@H](O)CO)C([O-])=C1O.[Na+] [sodium ascorbate] |  |  |  |  |  |  |  |  |  |  |  |  |  |  |  |  |  |  |  | 99.0 % (W/W)
